How the values were obtained:
NCI-H446 cell line = assay: Cell viability assay for NCI-H446 cell line; assay type: cell-based; details: Homo sapiens, NCI-H446, 120 h; H446 cells, 5 days culture, EZ-Cytox; read-out: IC50 value (Level)
In short: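 Viability was measured by absorbance at 450 nm after 4 h with EZ-Cytox, following 5-day exposure of NCI-H446 cells (RPMI 1640, 10% FBS, 37 °C, 5% CO2) to 3-fold serial dilutions from 1000 nM down to 0.15 nM, added 24 h post-seeding.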

Aurora kinase A (AURKA) = biological target: T1, Aurora kinase A (AURKA) (Homo sapiens, UniProt O14965); assay: Luciferase assay for AURKA in HeLa LgBit (AURKA-HiBit KI) cell line; assay type: cell-based; details: HeLa LgBit (AURKA-HiBit KI) cells, measured after 12 hours
T1 construct: endogenous in cells; host or cells: HeLa LgBit (AURKA-HiBit KI), CRISPR/Cas9 knock-in at the endogenous AURKA locus
T1 sequence (O14965 1-403): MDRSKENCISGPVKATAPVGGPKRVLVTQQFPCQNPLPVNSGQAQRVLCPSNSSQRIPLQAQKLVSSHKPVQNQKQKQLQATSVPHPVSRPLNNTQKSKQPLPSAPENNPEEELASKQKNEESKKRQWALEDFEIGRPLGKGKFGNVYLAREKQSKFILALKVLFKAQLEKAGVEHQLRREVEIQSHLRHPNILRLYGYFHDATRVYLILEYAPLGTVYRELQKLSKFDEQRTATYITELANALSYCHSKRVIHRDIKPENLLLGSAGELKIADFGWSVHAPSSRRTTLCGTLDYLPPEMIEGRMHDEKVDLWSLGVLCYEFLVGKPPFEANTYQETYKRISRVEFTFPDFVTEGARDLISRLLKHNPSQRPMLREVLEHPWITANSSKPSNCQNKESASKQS
In short: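 Test compounds (10 nM or 100 nM) added to AURKA-HiBit knock-in HeLa LgBit cells that had been pre-loaded with Endurazine for 2 h following an 18 h culture at 3×10^4 cells. Endogenous AURKA-HiBit level followed by luminescence (470-480 nm), measured after 12 h.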

For `O=C1CCC(c2ccc(N3CCN(CCC4CCN(NC(=O)c5ccc(Nc6ncc(F)c(Nc7ccc(C(=O)Nc8ccccc8Cl)cc7)n6)cc5)CC4)CC3)cc2F)C(=O)N1` (stereo not drawn) [Compound 82, N-(2-chlorophenyl)-4-((2-((4-((4-(2-(4-(4-(2,6-dioxopiperidin-3-yl)-3-fluorophenyl)piperazin-1-yl)ethyl)piperidin-1-yl)carbamoyl)phenyl)amino)-5-fluoropyrimidin-4-yl)amino)benzamide], the IC50 (NCI-H446 cell line) was under 50 nM, the “luminescence value (Level)” value (Aurora kinase A (AURKA); 10 nM compound) was “A (A is <0.3)” and the “luminescence value (Level)” value (Aurora kinase A (AURKA); 100 nM compound) was “A (A is <0.2)”.

For `O=C1CCC(c2ccc(N3CCN(CCC4CCN(NC(=O)c5ccc(Nc6ncc(F)c(Nc7ccc(C(=O)Nc8ccccc8Cl)cc7)n6)cn5)CC4)CC3)cc2)C(=O)N1` (stereo not drawn) [Compound 83, 5-[[4-[4-[(2-chlorophenyl)carbamoyl]anilino]-5-fluoro-pyrimidin-2-yl]amino]-N-[4-[2-[4-[4-(2,6-dioxo-3-piperidyl)phenyl]piperazin-1-yl]ethyl]-1-piperidyl]pyridine-2-carboxamide], the IC50 (NCI-H446 cell line) was over 200 nM, the “luminescence value (Level)” value (Aurora kinase A (AURKA); 10 nM compound) was “B (B is 0.3 to 0.5)” and the “luminescence value (Level)” value (Aurora kinase A (AURKA); 100 nM compound) was “A (A is <0.2)”.

In the case of `Cc1cc(N2CCN(CCC3CCN(NC(=O)c4ccc(Nc5ncc(F)c(Nc6ccc(C(=O)Nc7ccccc7Cl)cc6)n5)cc4)CC3)CC2)ccc1NC1CCC(=O)NC1=O` (stereo not drawn) [Compound 85, N-(2-chlorophenyl)-4-((2-((4-((4-(2-(4-(4-((2,6-dioxopiperidin-3-yl)amino)-3-methylphenyl)piperazin-1-yl)ethyl)piperidin-1-yl)carbamoyl)phenyl)amino)-5-fluoropyrimidin-4-yl)amino)benzamide], the IC50 (NCI-H446 cell line) is reported as 150 to 200 nM, the “luminescence value (Level)” value (Aurora kinase A (AURKA); 10 nM compound) is reported as “B (B is 0.3 to 0.5)” and the “luminescence value (Level)” value (Aurora kinase A (AURKA); 100 nM compound) is reported as “A (A is <0.2)”.

`O=C1CCC(Nc2ccc(N3CCN(CC[C@H]4CC[C@H](NC(=O)c5ccc(Nc6ncc(F)c(Nc7ccc(C(=O)Nc8ccccc8Cl)cc7)n6)cc5)CC4)CC3)c(F)c2)C(=O)N1` (stereo partly drawn) [Compound 86, N-(2-chlorophenyl)-4-((2-((4-(((1r,4r)-4-(2-(4-(4-((2,6-dioxopiperidin-3-yl)amino)-2-fluorophenyl)piperazin-1-yl)ethyl)cyclohexyl)carbamoyl)phenyl)amino)-5-fluoropyrimidin-4-yl)amino)benzamide] was tested, and the IC50 (NCI-H446 cell line) was 50 to 100 nM, the “luminescence value (Level)” value (Aurora kinase A (AURKA); 10 nM compound) was “A (A is <0.3)” and the “luminescence value (Level)” value (Aurora kinase A (AURKA); 100 nM compound) was “A (A is <0.2)”.

With `O=C1CCC(c2ccc(N3CCN(CCC4CCN(NC(=O)c5ccc(Nc6ncc(F)c(Nc7ccc(C(=O)Nc8ccccc8Cl)cc7)n6)cc5)CC4)CC3)cn2)C(=O)N1` (stereo not drawn) [Compound 88, N-(2-chlorophenyl)-4-((2-((4-((4-(2-(4-(6-(2,6-dioxopiperidin-3-yl)pyridin-3-yl)piperazin-1-yl)ethyl)piperidin-1-yl)carbamoyl)phenyl)amino)-5-fluoropyrimidin-4-yl)amino)benzamide] the IC50 (NCI-H446 cell line) was under 50 nM, the “luminescence value (Level)” value (Aurora kinase A (AURKA); 10 nM compound) was “A (A is <0.3)” and the “luminescence value (Level)” value (Aurora kinase A (AURKA); 100 nM compound) was “A (A is <0.2)”.

`O=C1CCC(c2ccc(N3CCN(CCC4CCN(NC(=O)c5ccc(Nc6ncc(F)c(Nc7ccc(C(=O)Nc8ccccc8F)cc7)n6)cc5)CC4)CC3)cc2)C(=O)N1` (stereo not drawn) [Compound 90, 4-[[2-[4-[[4-[2-[4-[4-(2,6-dioxo-3-piperidyl)phenyl]piperazin-1-yl]ethyl]-1-piperidyl]carbamoyl]anilino]-5-fluoro-pyrimidin-4-yl]amino]-N-(2-fluorophenyl)benzamide] was tested, and the IC50 (NCI-H446 cell line) was under 50 nM, the “luminescence value (Level)” value (Aurora kinase A (AURKA); 10 nM compound) was “A (A is <0.3)” and the “luminescence value (Level)” value (Aurora kinase A (AURKA); 100 nM compound) was “A (A is <0.2)”.

`O=C1CCC(c2ccc(N3CCN(CCC4CCN(NC(=O)c5ccc(Nc6ncc(F)c(Nc7ccc(NC(=O)c8ccccc8Cl)cc7)n6)cc5)CC4)CC3)cc2)C(=O)N1` (stereo not drawn) [Compound 93, 2-chloro-N-(4-((2-((4-((4-(2-(4-(4-(2,6-dioxopiperidin-3-yl)phenyl)piperazin-1-yl)ethyl)piperidin-1-yl)carbamoyl)phenyl)amino)-5-fluoropyrimidin-4-yl)amino)phenyl)benzamide] was tested, and the IC50 (NCI-H446 cell line) was under 50 nM, the “luminescence value (Level)” value (Aurora kinase A (AURKA); 10 nM compound) was “A (A is <0.3)” and the “luminescence value (Level)” value (Aurora kinase A (AURKA); 100 nM compound) was “A (A is <0.2)”.

For `O=C1CC[C@H](Nc2ccc(N3CCN(CCC4CCN(NC(=O)c5ccc(Nc6ncc(F)c(Nc7ccc(C(=O)Nc8ccccc8Cl)cc7)n6)cc5)CC4)CC3)c(F)c2)C(=O)N1` [Compound 94, (S)—N-(2-chlorophenyl)-4-((2-((4-((4-(2-(4-(4-((2,6-dioxopiperidin-3-yl)amino)-2-fluorophenyl)piperazin-1-yl)ethyl)piperidin-1-yl)carbamoyl)phenyl)amino)-5-fluoropyrimidin-4-yl)amino)benzamide], the IC50 (NCI-H446 cell line) was under 50 nM, the “luminescence value (Level)” value (Aurora kinase A (AURKA); 10 nM compound) was “A (A is <0.3)” and the “luminescence value (Level)” value (Aurora kinase A (AURKA); 100 nM compound) was “A (A is <0.2)”.

In the case of `O=C1CC[C@H](Nc2ccc(N3CCN(CCC4CCN(NC(=O)c5ccc(Nc6ncc(F)c(Nc7ccc(C(=O)Nc8ccccc8Cl)cc7)n6)cc5)CC4)CC3)cc2F)C(=O)N1` [Compound 95, (S)—N-(2-chlorophenyl)-4-((2-((4-((4-(2-(4-(4-((2,6-dioxopiperidin-3-yl)amino)-3-fluorophenyl)piperazin-1-yl)ethyl)piperidin-1-yl)carbamoyl)phenyl)amino)-5-fluoropyrimidin-4-yl)amino)benzamide], the IC50 (NCI-H446 cell line) is reported as 50 to 100 nM, the “luminescence value (Level)” value (Aurora kinase A (AURKA); 10 nM compound) is reported as “B (B is 0.3 to 0.5)” and the “luminescence value (Level)” value (Aurora kinase A (AURKA); 100 nM compound) is reported as “A (A is <0.2)”.

For `O=C1CCC(c2ccc(N3CCC(O)(CCC4CCN(NC(=O)c5ccc(Nc6ncc(F)c(Nc7ccc(C(=O)Nc8ccccc8Cl)cc7)n6)cc5)CC4)CC3)c(F)c2)C(=O)N1` (stereo not drawn) [Compound 96, N-(2-chlorophenyl)-4-((2-((4-((4-(2-(1-(4-(2,6-dioxopiperidin-3-yl)-2-fluorophenyl)-4-hydroxypiperidin-4-yl)ethyl)piperidin-1-yl)carbamoyl)phenyl)amino)-5-fluoropyrimidin-4-yl)amino)benzamide], the IC50 (NCI-H446 cell line) was under 50 nM, the “luminescence value (Level)” value (Aurora kinase A (AURKA); 10 nM compound) was “A (A is <0.3)” and the “luminescence value (Level)” value (Aurora kinase A (AURKA); 100 nM compound) was “A (A is <0.2)”.

`O=C1CCC(c2ccc(N3CCC(CN4CC5(CCN(NC(=O)c6ccc(Nc7ncc(F)c(Nc8ccc(C(=O)Nc9ccccc9Cl)cc8)n7)cc6)CC5)C4)CC3)c(F)c2)C(=O)N1` (stereo not drawn) [Compound 97, N-(2-chlorophenyl)-4-((2-((4-((2-((1-(4-(2,6-dioxopiperidin-3-yl)-2-fluorophenyl)piperidin-4-yl)methyl)-2,7-diazaspiro[3.5]nonan-7-yl)carbamoyl)phenyl)amino)-5-fluoropyrimidin-4-yl)amino)benzamide] was tested, and the IC50 (NCI-H446 cell line) was 50 to 100 nM, the “luminescence value (Level)” value (Aurora kinase A (AURKA); 10 nM compound) was “B (B is 0.3 to 0.5)” and the “luminescence value (Level)” value (Aurora kinase A (AURKA); 100 nM compound) was “A (A is <0.2)”.

With `O=C1CCC(c2ccc(N3CCN(CCC4CCN(NC(=O)c5ccc(Nc6ncc(F)c(Nc7ccc(C(=O)Nc8ccccc8Cl)cn7)n6)cc5)CC4)CC3)cc2)C(=O)N1` (stereo not drawn) [Compound 98, N-(2-chlorophenyl)-6-((2-((4-((4-(2-(4-(4-(2,6-dioxopiperidin-3-yl)phenyl)piperazin-1-yl)ethyl)piperidin-1-yl)carbamoyl)phenyl)amino)-5-fluoropyrimidin-4-yl)amino) nicotinamide] the IC50 (NCI-H446 cell line) was 100 to 150 nM, the “luminescence value (Level)” value (Aurora kinase A (AURKA); 10 nM compound) was “A (A is <0.3)” and the “luminescence value (Level)” value (Aurora kinase A (AURKA); 100 nM compound) was “A (A is <0.2)”.

`O=C1CCC(c2ccc(N3CCN(CCN4CCC(COc5ccc(Nc6ncc(F)c(Nc7ccc(C(=O)Nc8ccccc8Cl)cc7)n6)cc5)CC4)CC3)cc2)C(=O)N1` (stereo not drawn) [Compound 99, N-(2-chlorophenyl)-4-((2-((4-((1-(2-(4-(4-(2,6-dioxopiperidin-3-yl)phenyl)piperazin-1-yl)ethyl)piperidin-4-yl)methoxy)phenyl)amino)-5-fluoropyrimidin-4-yl)amino) benzamide] was tested, and the IC50 (NCI-H446 cell line) was over 200 nM, the “luminescence value (Level)” value (Aurora kinase A (AURKA); 10 nM compound) was “D (D is 0.7 to 0.8)” and the “luminescence value (Level)” value (Aurora kinase A (AURKA); 100 nM compound) was “B (B is 0.2 to 0.4)”.

`CN(Cc1ccc(Nc2ncc(F)c(Nc3ccc(C(=O)Nc4ccccc4Cl)cc3)n2)cc1)C1CCN(CCN2CCN(c3ccc(C4CCC(=O)NC4=O)cc3)CC2)CC1` (stereo not drawn) [Compound 100, N-(2-chlorophenyl)-4-((2-((4-(((1-(2-(4-(4-(2,6-dioxopiperidin-3-yl)phenyl)piperazin-1-yl)ethyl)piperidin-4-yl)(methyl)amino)methyl)phenyl)amino)-5-fluoropyrimidin-4-yl)amino)benzamide] was tested, and the IC50 (NCI-H446 cell line) was over 200 nM, the “luminescence value (Level)” value (Aurora kinase A (AURKA); 10 nM compound) was “C (C is 0.5 to 0.7)” and the “luminescence value (Level)” value (Aurora kinase A (AURKA); 100 nM compound) was “A (A is <0.2)”.

`O=C1CCC(c2ccc(N3CCN(CCC4CCN(NC(=O)c5ccc(Nc6ncc(F)c(Oc7ccc(C(=O)Nc8ccccc8Cl)cc7)n6)cc5)CC4)CC3)cc2)C(=O)N1` (stereo not drawn) [Compound 101, N-(2-chlorophenyl)-4-((2-((4-((4-(2-(4-(4-(2,6-dioxopiperidin-3-yl)phenyl)piperazin-1-yl)ethyl)piperidin-1-yl)carbamoyl)phenyl)amino)-5-fluoropyrimidin-4-yl)oxy) benzamide] was tested, and the IC50 (NCI-H446 cell line) was over 200 nM, the “luminescence value (Level)” value (Aurora kinase A (AURKA); 10 nM compound) was “B (B is 0.3 to 0.5)” and the “luminescence value (Level)” value (Aurora kinase A (AURKA); 100 nM compound) was “A (A is <0.2)”.

Reference: patent publication US20260226071A1, “2, 4-DIANILINOPYRIMIDINE-BASED AURORA-A KINASE SELECTIVE DEGRADATION INDUCING COMPOUNDS” (UPPTHERA, INC., priority 2023, published 2026)
